Measurements taken from US9975878B2, “Substituted triazine BMI-1 inhibitors” (PTC Therapeutics, Inc., priority 2013, dated 2018).

Tested on: Bmi-1 protein
Test: Sandwich ELISA Assay: Bmi-1 protein level in HT-1080 cells treated with test compounds
Format: cell-based
Outline: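 HT-1080 cells exposed to compounds (final DMSO 0.5%) for 40-48 h at 37° C, 5% CO2, then lysed. Bmi-1 quantified by sandwich ELISA (mouse anti-Bmi-1 capture, rabbit anti-Bmi-1 detection, HRP anti-rabbit, TMB), read at OD450 with OD570 reference, against recombinant GST-Bmi-1 standard curve (0-8000 pg/mL).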

| Compound | EC50 |
| --- | --- |
| Cc1nc2ccccc2n1-c1nc(N)nc(Nc2ccc(N3CCOCC3)cc2)n1 [Cpd 135, 6-(2-methyl-1H-benzimidazol-1-yl)-N-[4-(morpholin-4-yl)phenyl]-1,3,5-triazine-2,4-diamine] | 100 to 3000 nM |
| CCc1nc2ccccc2n1-c1nc(Nc2ccc(C(F)(F)F)cc2)c[n+]([O-])n1 [Cpd 139, 3-(2-ethyl-1H-benzimidazol-1-yl)-N-[4-(trifluoromethyl)phenyl]-1,2,4-triazin-5-amine 1-oxide] | 10 to 100 nM |
| [O-][n+]1cc(Nc2ccc(C(F)(F)F)cc2)nc(-n2c(C3CC3)nc3ccccc32)n1 [Cpd 141, 3-(2-cyclopropyl-1H-benzimidazol-1-yl)-N-[4-(trifluoromethyl)phenyl]-1,2,4-triazin-5-amine 1-oxide] | 10 to 100 nM |
| CCc1nc2ccccc2n1-c1nnc(N)c(Nc2ccc(C(F)(F)F)cc2)n1 [Cpd 142, 3-(2-ethyl-1H-benzimidazol-1-yl)-N^5-[4-(trifluoromethyl)phenyl]-1,2,4-triazine-5,6-diamine] | 100 to 3000 nM |
| Cc1nc2ccccc2n1-c1nnc(N)c(Nc2ccc(C(F)(F)F)cc2)n1 [Cpd 143, 3-(2-methyl-1H-benzimidazol-1-yl)-N^5-[4-(trifluoromethyl)phenyl]-1,2,4-triazine-5,6-diamine] | 100 to 3000 nM |
| COc1ccc(Nc2cnnc(-n3c(C)nc4ccccc43)n2)cc1 [Cpd 144, N-(4-methoxyphenyl)-3-(2-methyl-1H-benzimidazol-1-yl)-1,2,4-triazin-5-amine] | 1 to 10 nM |
| COc1ccc(Nc2cnnc(-n3c(C4CC4)nc4ccccc43)n2)cc1 [Cpd 146, 3-(2-cyclopropyl-1H-benzimidazol-1-yl)-N-(4-methoxyphenyl)-1,2,4-triazin-5-amine] | 1 to 10 nM |
| COc1ccc(Nc2nc(N)nc(-n3c(C)nc4ccccc43)n2)cc1 [Cpd 147, N-(4-methoxyphenyl)-6-(2-methyl-1H-benzimidazol-1-yl)-1,3,5-triazine-2,4-diamine] | 1 to 10 nM |
| Cc1ccc(Nc2nc(N)nc(-n3c(C)nc4ccccc43)n2)cc1 [Cpd 148, 6-(2-methyl-1H-benzimidazol-1-yl)-N-(4-methylphenyl)-1,3,5-triazine-2,4-diamine] | 1 to 10 nM |
| Cc1cccc(Nc2nc(N)nc(-n3c(C)nc4ccccc43)n2)c1 [Cpd 149, 6-(2-methyl-1H-benzimidazol-1-yl)-N-(3-methylphenyl)-1,3,5-triazine-2,4-diamine] | 100 to 3000 nM |
| Cc1nc2ccccc2n1-c1nc(N)nc(Nc2ccc(Cl)cc2)n1 [Cpd 150, N-(4-chlorophenyl)-6-(2-methyl-1H-benzimidazol-1-yl)-1,3,5-triazine-2,4-diamine] | 10 to 100 nM |
| Cc1nc2ccccc2n1-c1nc(N)nc(Nc2ccc(C#N)cc2)n1 [Cpd 151, 4-{[4-amino-6-(2-methyl-1H-benzimidazol-1-yl)-1,3,5-triazin-2-yl]amino}benzonitrile] | 100 to 3000 nM |
| Cc1nc2ncc(Cl)cc2n1-c1nc(N)nc(Nc2ccc(OC(F)(F)F)cc2)n1 [Cpd 152, 6-(6-chloro-2-methyl-1H-imidazo[4,5-b]pyridin-1-yl)-N-[4-(trifluoromethoxy)phenyl]-1,3,5-triazine-2,4-diamine] | 100 to 3000 nM |
| COc1ccc(Nc2nc(N)nc(-n3c(C4CC4)nc4ccccc43)n2)cc1 [Cpd 153, 6-(2-cyclopropyl-1H-benzimidazol-1-yl)-N-(4-methoxyphenyl)-1,3,5-triazine-2,4-diamine] | 1 to 10 nM |
| COc1cccc(Nc2nc(N)nc(-n3c(C4CC4)nc4ccccc43)n2)c1 [Cpd 154, 6-(2-cyclopropyl-1H-benzimidazol-1-yl)-N-(3-methoxyphenyl)-1,3,5-triazine-2,4-diamine] | 100 to 3000 nM |
| Cc1ccc(Nc2nc(N)nc(-n3c(C4CC4)nc4ccccc43)n2)cc1 [Cpd 155, 6-(2-cyclopropyl-1H-benzimidazol-1-yl)-N-(4-methylphenyl)-1,3,5-triazine-2,4-diamine] | 1 to 10 nM |
| Cc1cccc(Nc2nc(N)nc(-n3c(C4CC4)nc4ccccc43)n2)c1 [Cpd 156, 6-(2-cyclopropyl-1H-benzimidazol-1-yl)-N-(3-methylphenyl)-1,3,5-triazine-2,4-diamine] | 100 to 3000 nM |
| Nc1nc(Nc2ccc(Cl)cc2)nc(-n2c(C3CC3)nc3ccccc32)n1 [Cpd 157, N-(4-chlorophenyl)-6-(2-cyclopropyl-1H-benzimidazol-1-yl)-1,3,5-triazine-2,4-diamine] | 10 to 100 nM |
| N#Cc1ccc(Nc2nc(N)nc(-n3c(C4CC4)nc4ccccc43)n2)cc1 [Cpd 158, 4-{[4-amino-6-(2-cyclopropyl-1H-benzimidazol-1-yl)-1,3,5-triazin-2-yl]amino}benzonitrile] | 100 to 3000 nM |
| CCc1nc2ccccc2n1-c1nc(N)nc(Nc2ccc(OC)cc2)n1 [Cpd 159, 6-(2-ethyl-1H-benzimidazol-1-yl)-N-(4-methoxyphenyl)-1,3,5-triazine-2,4-diamine] | 1 to 10 nM |
| CCc1nc2ccccc2n1-c1nc(N)nc(Nc2ccc(C)cc2)n1 [Cpd 160, 6-(2-ethyl-1H-benzimidazol-1-yl)-N-(4-methylphenyl)-1,3,5-triazine-2,4-diamine] | 1 to 10 nM |
| CCc1nc2ccccc2n1-c1nc(N)nc(Nc2cccc(C)c2)n1 [Cpd 161, 6-(2-ethyl-1H-benzimidazol-1-yl)-N-(3-methylphenyl)-1,3,5-triazine-2,4-diamine] | 100 to 3000 nM |
| CCc1nc2ccccc2n1-c1nc(N)nc(Nc2ccc(Cl)cc2)n1 [Cpd 162, N-(4-chlorophenyl)-6-(2-ethyl-1H-benzimidazol-1-yl)-1,3,5-triazine-2,4-diamine] | 10 to 100 nM |
| CCc1nc2ccccc2n1-c1nc(N)nc(Nc2ccc(C#N)cc2)n1 [Cpd 163, 4-{[4-amino-6-(2-ethyl-1H-benzimidazol-1-yl)-1,3,5-triazin-2-yl]amino}benzonitrile] | 100 to 3000 nM |
| Cc1ccc(Nc2nc(N)nc(-n3c(C)nc4ccc(F)cc43)n2)cc1 [Cpd 165, 6-(6-fluoro-2-methyl-1H-benzimidazol-1-yl)-N-(4-methylphenyl)-1,3,5-triazine-2,4-diamine] | 1 to 10 nM |
| Cc1nc2ccc(F)cc2n1-c1nc(N)nc(Nc2ccc(Cl)cc2)n1 [Cpd 166, N-(4-chlorophenyl)-6-(6-fluoro-2-methyl-1H-benzimidazol-1-yl)-1,3,5-triazine-2,4-diamine] | 10 to 100 nM |
| Cc1nc2ccccc2n1-c1nc(N)nc(Nc2ccc(C(C)C)cc2)n1 [Cpd 167, 6-(2-methyl-1H-benzimidazol-1-yl)-N-[4-(propan-2-yl)phenyl]-1,3,5-triazine-2,4-diamine] | 100 to 3000 nM |

Second part, the compound after the results:

| EC50 | Compound |
| --- | --- |
| 10 to 100 nM | Cc1nc2ccc(F)cc2n1-c1cnnc(Nc2ccc(OC(F)F)cc2)n1 [Cpd 136, N-[4-(difluoromethoxy)phenyl]-5-(6-fluoro-2-methyl-1H-benzimidazol-1-yl)-1,2,4-triazin-3-amine] |
| 100 to 3000 nM | CCc1nc2ccc(F)cc2n1-c1cnnc(Nc2ccc(OC(F)F)cc2)n1 [Cpd 137, N-[4-(difluoromethoxy)phenyl]-5-(2-ethyl-6-fluoro-1H-benzimidazol-1-yl)-1,2,4-triazin-3-amine] |
| 100 to 3000 nM | Fc1ccc2nc(C3CC3)n(-c3cnnc(Nc4ccc(OC(F)F)cc4)n3)c2c1 [Cpd 138, 5-(2-cyclopropyl-6-fluoro-1H-benzimidazol-1-yl)-N-[4-(difluoromethoxy)phenyl]-1,2,4-triazin-3-amine] |
| 100 to 3000 nM | CCc1nc2ccccc2n1-c1nc(Nc2ccc(OC(F)F)cc2)c[n+]([O-])n1 [Cpd 140, N-[4-(difluoromethoxy)phenyl]-3-(2-ethyl-1H-benzimidazol-1-yl)-1,2,4-triazin-5-amine 1-oxide] |
| 1 to 10 nM | CCc1nc2ccccc2n1-c1nncc(Nc2ccc(OC)cc2)n1 [Cpd 145, 3-(2-ethyl-1H-benzimidazol-1-yl)-N-(4-methoxyphenyl)-1,2,4-triazin-5-amine] |
| 1 to 10 nM | COc1ccc(Nc2nc(N)nc(-n3c(C)nc4ccc(F)cc43)n2)cc1 [Cpd 164, 6-(6-fluoro-2-methyl-1H-benzimidazol-1-yl)-N-(4-methoxyphenyl)-1,3,5-triazine-2,4-diamine] |
| 1 to 10 nM | CCc1nc2ccc(F)cc2n1-c1nc(N)nc(Nc2ccc(OC)cc2)n1 [Cpd 168, 6-(2-ethyl-6-fluoro-1H-benzimidazol-1-yl)-N-(4-methoxyphenyl)-1,3,5-triazine-2,4-diamine] |
| 1 to 10 nM | CCc1nc2ccc(F)cc2n1-c1nc(N)nc(Nc2ccc(C)cc2)n1 [Cpd 169, 6-(2-ethyl-6-fluoro-1H-benzimidazol-1-yl)-N-(4-methylphenyl)-1,3,5-triazine-2,4-diamine] |
| 10 to 100 nM | CCc1nc2ccc(F)cc2n1-c1nc(N)nc(Nc2ccc(Cl)cc2)n1 [Cpd 170, N-(4-chlorophenyl)-6-(2-ethyl-6-fluoro-1H-benzimidazol-1-yl)-1,3,5-triazine-2,4-diamine] |
| 100 to 3000 nM | CCc1nc2ccc(F)cc2n1-c1nc(N)nc(Nc2ccc(OC(F)(F)F)cc2)n1 [Cpd 171, 6-(2-ethyl-6-fluoro-1H-benzimidazol-1-yl)-N-[4-(trifluoromethoxy)phenyl]-1,3,5-triazine-2,4-diamine] |
| 100 to 3000 nM | Cc1nc2ccc(F)cc2n1-c1nc(N)nc(Nc2ccc(OC(F)(F)F)cc2)n1 [Cpd 172, 6-(6-fluoro-2-methyl-1H-benzimidazol-1-yl)-N-[4-(trifluoromethoxy)phenyl]-1,3,5-triazine-2,4-diamine] |
| 1 to 10 nM | CCc1nc2cc(F)ccc2n1-c1nc(N)nc(Nc2ccc(OC)cc2)n1 [Cpd 173, 6-(2-ethyl-5-fluoro-1H-benzimidazol-1-yl)-N-(4-methoxyphenyl)-1,3,5-triazine-2,4-diamine] |
| 10 to 100 nM | CCc1nc2cc(F)ccc2n1-c1nc(N)nc(Nc2ccc(C)cc2)n1 [Cpd 174, 6-(2-ethyl-5-fluoro-1H-benzimidazol-1-yl)-N-(4-methylphenyl)-1,3,5-triazine-2,4-diamine] |
| 100 to 3000 nM | CCc1nc2cc(F)ccc2n1-c1nc(N)nc(Nc2ccc(Cl)cc2)n1 [Cpd 175, N-(4-chlorophenyl)-6-(2-ethyl-5-fluoro-1H-benzimidazol-1-yl)-1,3,5-triazine-2,4-diamine] |
